Experimental findings from patent publication US12234476B2, “VCN enhancer compositions and methods of using the same” (bluebird bio, Inc., priority 2016, dated 2025) are described below.

Data set [1] relates to long-term HSCs (CD34+CD38-CD45RA-CD90+CD49f+). The data set is described as follows: GFP lentiviral vector transduction of phenotypic long-term HSCs (flow cytometry). Format: cell-based, human. Conditions: GFP LVV; 4 days of culture. An excerpt: Human CD34^+ cells were transduced with a GFP lentiviral vector (LVV) and subsequently cultured in cytokine-containing media. After 4 days of culture, these cells were stained for cell surface markers that phenotypically characterize long-term HSCs (CD34^+CD38^−CD45RA^−CD90^+CD49f^+). […] The proportion of transduced phenotypic long-term HSCs increased to >90% in cells transduced in the presence of F108, with or without the supplementation of PGE2. FIG. 22.

The test system of data set [2] is hCD34+ cells. The data set is described as follows: Vector copy number (VCN) analysis by qPCR of lentivirus-transduced hCD34+ cells (pooled or individual MethoCult colonies, liquid culture). Format: cell-based, human. Conditions: for VCN with increasing concentrations of PGE2: pooled colonies. As to the method: (§1) Washed cells were resuspended in 2 mL Stem Cell Growth Medium (SCGM)+cytokines and transferred to a standard 12-well non-adherent tissue culture plate. Cells were maintained for an additional 6 days in a standard humidified tissue culture incubator (5% CO2) and then subjected to Vector Copy Number (VCN) analysis or single-cell nested PCR to determine transduction efficiency. Both VCN and the single-cell nested PCR assay were performed with qPCR using primers and probes specific to both the vector and an endogenous control gene. VCN was determined by dividing the amount of vector signal by the amount of the endogenous control gene. For the single-cell nested PCR assay, wells that contained a cell positive for the endogenous control gene and wells that contained a marked cell positive for both the vector and the endogenous control gene were enumerated, and the proportion of marked cells, or transduction efficiency, was calculated.
(§2) Washed cells were resuspended in 200 μL SCGM and then transferred to 3 mL aliquots of cytokine-supplemented methylcellulose (for example, Methocult M4434 Classic). 1.1 mL was then transferred to parallel 35-mm tissue culture dishes using a blunt 16-gauge needle. Dishes were maintained in a standard humidified tissue culture incubator for 12-16 days and colonies were scored for size, morphology, and cellular composition. Individual colonies were then picked for subsequent VCN analysis or the contents of an entire 35-mm dish were pooled and then subject to VCN analysis.

In data set [3] the test system is hCD34+ cells transplanted into NSG mice. The data set is described as follows: In vivo VCN of engrafted human cells in bone marrow of NSG mice. An excerpt: HSCs transduced with lentivirus were transplanted into NOD/SCID Gamma (NSG) mice to assess the effect of candidate compounds on viral transduction of human long-term hematopoietic stem cells. Transduced cells were washed and resuspended in phosphate-buffered saline (PBS) and transplanted into the tail vein of sub-myeloablated adult NSG mice, with minimal residual toxicity. Mice were housed in a pathogen-free environment per standard IACUC animal care guidelines. At 4 months post-transplant bone marrow (BM) was harvested from both femurs and analyzed for both VCN and engraftment of human cells by staining with an anti-hCD45 antibody (BD #561864) followed by flow cytometry analysis.
Meta-analysis of NSG transplants with PGE2-treated lentiviral transduced hCD34+ cells from healthy donors (n=3). Human CD34^+ cells were transplanted into sub-myeloablated female NSG mice and bone marrow (BM) was analyzed at 4 months post-transplant. BM was harvested from both femurs of NSG mice and half of the sample was stained with anti-hCD45 for approximately 30 minutes at 4° C. Following incubation, samples were washed and analyzed for human CD45^+ cells via flow analysis using an anti-hCD45 antibody (BD #561864). […] FIG. 1A. The mean VCN of engrafted PGE2-treated hCD34^+ cells was about two-fold higher than the mean VCN of control cells at 4 months post-transplant. FIG. 1B.
A low-transducing cell lot of hCD34^+ cells (VCN of 0.3 under standard conditions) was transduced with lentiviral vector in the presence of protamine sulfate, PGE2, F108 (200 μg/mL or 1000 μg/mL), or the combination of PGE2 and F108 for 24 hours. Following transduction, cells were washed and immediately injected into busulfan-treated NSG mice.
Two months post-transplant, 5 mice/group were sacrificed and BM was harvested and analyzed to evaluate in vivo VCN. The in vivo VCN of engrafted cells transduced in the presence of protamine sulfate was very similar to the graft VCN (˜0.3). in vivo VCN increased approximately 2-fold in PGE2-treated cells. […] FIG. 10C.

Data set [4] concerns hCD34+ cells. The data set is described as follows: Colony formation in MethoCult / methylcellulose. Format: cell-based, human. As to the method: as §2
Colonies in MethoCult were enumerated using STEMvision (Stemcell Technologies). […] FIG. 3.

In data set [5] the test system is hCD34+ cells transplanted into NSG mice. The data set is described as follows: Engraftment and differentiation of transduced hCD34+ cells in NSG mice (flow cytometry). Type of data set: in vivo. The text has this:
HSCs transduced with lentivirus were transplanted into NOD/SCID Gamma (NSG) mice to assess the effect of candidate compounds on viral transduction of human long-term hematopoietic stem cells. […] Mice were housed in a pathogen-free environment per standard IACUC animal care guidelines.
Meta-analysis of NSG transplants with PGE2-treated lentiviral transduced hCD34+ cells from healthy donors (n=3). Human CD34^+ cells were transplanted into sub-myeloablated female NSG mice and bone marrow (BM) was analyzed at 4 months post-transplant. BM was harvested from both femurs of NSG mice and half of the sample was stained with anti-hCD45 for approximately 30 minutes at 4° C. […] FIG. 1A. […] FIG. 1B.
The BM was analyzed for engraftment of hCD34^+ cells. Cells were stained with an antibody cocktail recognizing various cell surface markers (CD45, CD33, CD3, CD19) and analyzed via flow cytometry.

The next data set relates to Human CD34+ cells. The data set is described as follows: ALDP expression by intracellular staining and flow cytometry. Type of data set: cell-based. The note with it: MND-ABCD1 LVV; AMN, ALD patients and healthy donors; day 4 or 5; vs PS.
Data set [6] relates to hCD34+ cells. The data set is described as follows: Transduction efficiency / % LVV+ (single-cell nested PCR or individual colony qPCR). Format: cell-based, human. Conditions: for transduction efficiency: low-transducing cell lot, individual colony qPCR (Example 11). As to the method: as §1
After a 7 day liquid culture, cells were collected and single-cell sorted into a 96-well plate. Cells were lysed and subjected to nested PCR to determine presence of LVV in a single cell. Percentage of cells containing both LVV and an endogenous control gene was determined from number of cells containing the endogenous control gene. […] FIG. 5B.
% LVV+: Single cells were isolated by FACS and deposited in 96-well plates containing lysis buffer. Following lysis, the viral-specific sequence from a lentiviral vector encoding a β-globin variant was amplified by PCR along with a control genomic sequence not present in the vector. The PCR products from each single cell were then analyzed by qPCR for presence of genomic sequence, indicating a successfully captured cell. […] Fraction of vector positive cells was then calculated across the entire set of sampled cells. The % LVV+ of the β0/β0 hCD34+ cells was about 77%. FIG. 18, right panel.

Description for Human CD34+ cells: Human CD34^+ cells from AMN patients (FIG. 26, panels A-D), ALD patients (FIG. 26, panels E-H), and healthy donors (HD; FIG. 26, panels I-L) were transduced with a lentiviral vector (LVV) lacking a WPRE and comprising an MND promoter operably linked to a polynucleotide encoding ABCD1. […] Cultured cells were stained intracellularly for ALDP expression on day 4 or 5 and analyzed by flow cytometry.

With `CCCCC[C@H](O)/C=C/[C@H]1[C@H](O)CC(=O)[C@@H]1C/C=C\CCCC(=O)O` [PGE2, prostaglandin E2], the “proportion of phenotypic long-term HSCs expressing GFP” value in data set [1] is on record as 45%. In addition, the “fold increase in mean VCN compared to protamine sulfate” value in the data set with hCD34+ cells [2] (24 hour transduction, 14 day MethoCult pooled colonies (Example 6)) came out at 2 fold. Also, the “VCN at D7 in cytokine cultured cells and D14 pooled methylcellulose colonies” value in the data set with hCD34+ cells [2] (MND-ABCD1 LVV, AMN, ALD patients and healthy donors) is recorded as “increased VCN”. For the same molecule, the “VCN with increasing concentrations of PGE2” value in the data set on hCD34+ cells [2] (in the presence of F108, PGE2 increased at least 10-fold) is “does not result in a dose-dependent increase in VCN”; with hCD34+ cells [2] (in the presence of protamine sulfate) it was “dose-dependent increase in VCN”. For the same molecule, the “increase of mean VCN of graft vs protamine sulfate” value in the data set on hCD34+ cells [2] (low-transducing cell lot, 24 hours (Example 11)) is “approximately 3 fold”. Also, the “mean VCN of engrafted cells vs control cells” value in data set [3] (4 months post-transplant, healthy donors n=3) is on record as “about two-fold”. The figures for the “increase of in vivo VCN over protamine sulfate” value in data set [3] (four months post-transplant) and in data set [3] (two months post-transplant) were “approximately 1.6 fold” and “approximately 2 fold”, respectively. In addition, the “colony formation ability of transduced cells” value in the data set with hCD34+ cells [4] (24 hour transduction, 14 day MethoCult (Example 4)) is recorded as “did not alter the colony formation ability”. In addition, the “effect on hCD34+ engraftment” value in data set [5] (2 and 4 months post-transplant) is listed as “no statistically significant effect”. For the same molecule, the “proportion of myeloid (CD33+) or lymphoid (CD3+ or CD19+) cells” value in data set [5] (2 and 4 months post-transplant) is “no significant difference”. Also, the “percentage of hCD45+ cells in mouse BM (engraftment)” value in data set [5] (4 months post-transplant, PGE2-treated vs control-treated) is recorded as “No statistically significant difference”. Besides, in the data set with Human CD34+ cells, the “number of cells expressing ALDP” value was “increased the number of cells expressing ALDP”. Besides, in the data set with hCD34+ cells [6], the transduction efficiency is recorded as ~40%.
In the case of protamine sulfate, the “proportion of phenotypic long-term HSCs expressing GFP” value in data set [1] is on record as “approximately 30%”. Also, the “VCN of pooled colonies” value with hCD34+ cells [2] (EF1α-IL2Rγ LVV, MOI 10 or 30) is listed as “below 1.5”; in the data set on hCD34+ cells [2] (EF1α-TPP1 or MND-TPP1 LVV, MOI 5 or 15), “below 1.5”. In the data set on hCD34+ cells [2] (F108 and PGE2 at MOI 10, protamine sulfate at MOI 25), the “distribution of individual colony VCNs” value is listed as 0-6. The “in vivo VCN of engrafted cells” value in data set [3] (four months post-transplant) and in data set [3] (two months post-transplant) was ~0.3 throughout. Further, the “ability of hematopoietic progenitors to form colonies (erythroid or myeloid)” value in the data set on hCD34+ cells [4] (8 μg/mL PS, 10 or 1000 μg/mL F108, 1000 μg/mL F108 with 8 μg/mL PS) is “Neither PS nor F108 significantly affected”. Also, the colony formation entry in the data set with hCD34+ cells [4] (IL2Rγ LVV (Example 26)) is “did not significantly impact colony formation”. Moreover, the “% LVV+ colonies” value was 20-30% with hCD34+ cells [6] (IL2Rγ LVV from PrCL1 or PrCL2) and 50-60% in the data set with hCD34+ cells [6] (IL2Rγ LVV, transiently prepared). In the data set on hCD34+ cells [6], the transduction efficiency was ~20%.
